Consider one compound from BindingDB's records for doi:10.1021/jm8008647 (Ewha Womans University, 2008).

The assay concerns the target T1, Adenosine receptor A3 (Rattus norvegicus, UniProt P28647).
T1 sequence (P28647 whole entry): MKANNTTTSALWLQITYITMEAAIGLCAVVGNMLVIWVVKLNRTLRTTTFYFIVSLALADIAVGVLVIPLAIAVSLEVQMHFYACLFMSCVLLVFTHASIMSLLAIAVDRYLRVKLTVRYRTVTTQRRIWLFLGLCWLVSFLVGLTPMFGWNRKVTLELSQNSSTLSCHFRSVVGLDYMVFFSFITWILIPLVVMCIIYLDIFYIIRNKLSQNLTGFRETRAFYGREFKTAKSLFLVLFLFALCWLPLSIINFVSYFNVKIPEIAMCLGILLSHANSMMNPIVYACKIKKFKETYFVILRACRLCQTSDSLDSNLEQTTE
The experiment in a line: Displacement of [125I]I-AB-MECA from rat adenosine A3 receptor expressed in CHO cells.

Each structure is given as a SMILES string.

Turning to `O[C@@H]1[C@H](O)CS[C@H]1n1cnc2c(NCc3cccc(I)c3)ncnc21` [(2R,3R,4S)-2-(6-(3-Iodobenzylamino)-9H-purin-9-yl)-tetrahydrothiophene-3,4-diol], the Ki came to 0.048 µM.

For orientation: Ki means the equilibrium dissociation constant of an inhibitor or competing ligand from its target. A low value points to higher affinity.
